# Laboratory results published in publication PMC12040169 (PLOS Biology, 2025).
# Test: in vitro
# Settings: human, hela cells, % viability
Structure (SMILES),"viability at 28.5 h, 10 µM","viability at 28.5 h, 10 µM (bulk resorufin, single well)"
COc1cc(CN2CCc3c([nH]c4ccccc34)C2)c([N+](=O)[O-])cc1OC [CBK261588],90.6%,–
O=C(Nc1ccc2nc(-c3ccc(-c4nc5ccc(NC(=O)c6cccs6)cc5[nH]4)cc3)[nH]c2c1)c1cccs1 [CBK261590],87.1%,–
O=C(N/N=C/c1ccc([N+](=O)[O-])cc1)c1ccc(O)cc1O [CBK261591],105%,–
CCOc1ccc(NC(=O)C2C3C=CC(O3)C2C(=O)O)cc1 (stereo not drawn) [CBK261592],91.7%,–
CCOC(=O)c1c(C)n(-c2ccccc2)c2ccc(O)c(CN(C)C)c12 [CBK261593C],91%,–
NS(=O)(=O)c1ccc(/N=C/c2cccc(OCc3ccccc3)c2)cc1 [CBK261594],92.1%,–
O=C(CN1CCCCCC1)N/N=C/c1ccc(F)c(Br)c1 [CBK261596],94.7%,–
O=C(O)CCC(=O)Nc1ccc2c(c1)oc1ccccc12 [CBK261597],86.3%,–
O=C(N/N=C/c1cc([N+](=O)[O-])ccc1Cl)c1ccc(O)c(O)c1 [CBK261599],112%,–
CC(=O)Nc1ccc(C(=O)Nc2ccc(S(N)(=O)=O)cc2)cc1 [CBK261600],95.3%,–
O=[N+]([O-])c1ccc(Cl)c(C2N(Cc3ccccc3)CCN2Cc2ccccc2)c1 [CBK261601],93.4%,–
Cc1cccc(C(=O)Nc2ccc(-c3nnc(-c4ccc(NC(=O)c5cccc(C)c5)cc4)o3)cc2)c1 [CBK261603],106%,–
N#CC1=C(N)Oc2cc(N)ccc2C1c1ccc(-c2ccccc2)cc1 (stereo not drawn) [CBK261605],91.3%,–
COc1cccc(C(=O)NNC(=O)Nc2ccccc2)c1 [CBK261608],91.8%,–
CCOC(=O)c1c(C)n(-c2ccc(OC)cc2)c2ccc(O)c(CN(C)C)c12 [CBK261609C],88%,–
CC(C)CC(C(=O)O)N1C(=O)/C(=C2/C(=O)Nc3ccc(Br)cc32)SC1=S (stereo not drawn) [CBK261610],84.7%,–
O=C(Nc1ccc(-c2nc3cc(-c4nc5cc(NC(=O)c6cccs6)ccc5[nH]4)ccc3[nH]2)cc1)c1cccs1 [CBK261614],97.6%,–
CCN1CCN(CC(=O)N/N=C/c2ccc(F)cc2)CC1 [CBK261615],108%,–
CC(=O)Nc1ccc(/C=N/NC(=O)CN2CCCCCCC2)cc1 [CBK261617],88.8%,–
N#Cc1c(NC(=O)CN2CCCCC2)sc2c1CCCC2 [CBK261619],89.6%,–
O=P(O)(COc1ccccc1)COc1ccccc1 [CBK261620],88.8%,–
COC(=O)C1=C(C(=O)OC)SC(=C2C(=S)C(C)(C)N(C(=O)c3ccc4ccccc4c3)c3cc(C)ccc32)S1 [CBK261622],116%,–

Structure (SMILES),"viability at 28.5 h, 10 µM","viability at 28.5 h, 10 µM (bulk resorufin, single well)"
O=C1/C(=C/NNc2nc3ccccc3s2)Sc2ccccc21 [CBK261627],96.4%,–
Oc1c(-c2ccc(Cl)cc2)c2nc3ccccc3nc2c2ccccc12 [CBK261628],87.7%,–
Oc1ccc(Br)cc1/C=N/c1ccc(-c2cc(-c3ccc(/N=C/c4cc(Br)ccc4O)cc3)ncn2)cc1 [CBK261630],115%,–
Cc1ccccc1NC(=O)/C(=C\c1cccnc1)NC(=O)c1ccccc1 [CBK261632],93.9%,–
Cc1nc2ccccn2c1-c1csc(Nc2ccc(C(=O)O)cc2)n1 [CBK261634B],74.4%,–
O=C1NC(=O)C(=CNCCc2c[nH]c3ccccc23)C(=O)N1 [CBK261635],–,93.2%
O=[N+]([O-])c1ccc(-c2ccc(/N=C/c3ccco3)cc2)cc1 [CBK261639],92.2%,–
O=C(N/N=C/c1ccccc1)c1ccccn1 [CBK261640],92.8%,–
Cc1cccc2cc(/C=C(\C#N)c3nc(-c4cc5ccccc5oc4=O)cs3)c(Cl)nc12 [CBK261642],85.4%,–
CCOC(=O)C1=C(C(=O)OCC)SC(=C2C(=S)C(C)(C)N(C(=O)c3ccc4ccccc4c3)c3ccccc32)S1 [CBK261643],103%,–
Nc1cccc(Oc2ccc(C(c3ccc(Oc4cccc(N)c4)cc3)(C(F)(F)F)C(F)(F)F)cc2)c1 [CBK261645],103%,–
O=C1/C(=C\Nc2cccc3cccnc23)Sc2ccccc21 [CBK261647],93.8%,–
O=C1NC(=O)N(c2ccc(Cl)cc2)C(=O)/C1=C\NCCCO [CBK261648],–,90.2%
CC1=CC(C)(C)N(CC(=O)c2ccc([N+](=O)[O-])cc2)c2c(C)cccc21 [CBK261652],103%,–
Cc1ccc(S(=O)(=O)c2ccc(C)c(S(=O)(=O)NC3CCCCC3)c2)cc1S(=O)(=O)NC1CCCCC1 [CBK261653],90%,–
N#CC(c1ccc(O)cc1)N1CCOCC1 (stereo not drawn) [CBK261659],116%,–
Oc1c(Cl)cc(Cl)cc1/C=N/c1ccc(-c2nc3ccc(/N=C/c4cc(Cl)cc(Cl)c4O)cc3[nH]2)cc1 [CBK261660],93.4%,–
C/C(=N\NC(=O)c1cccc(Cl)c1)c1ccccc1O [CBK261665],81.4%,–
O=C(COC(=O)c1cc(S(=O)(=O)N2CCCCC2)c(Cl)cc1Cl)c1ccccc1 [CBK261668],101%,–
NNS(=O)(=O)c1ccc(Oc2ccc([N+](=O)[O-])cc2)cc1 [CBK261669],95.9%,–
O=C(Oc1ccc(Cl)cc1)c1cc(S(=O)(=O)N2CCOCC2)ccc1Cl [CBK261670],99.6%,–
NNC(=O)COc1ccc(Cl)cc1Cl [CBK261671],92.6%,–

Structure (SMILES),"viability at 28.5 h, 10 µM","viability at 28.5 h, 10 µM (bulk resorufin, single well)"
CCN(CC)Cn1nc(Nc2ccccc2)n(-c2ccccc2)c1=S [CBK261672],87.6%,–
CCOc1ccccc1/C=N/Nc1ccccc1[N+](=O)[O-] [CBK261673],94.7%,–
CCOC(=O)Cc1nc2ccccc2[nH]1 [CBK261674],102%,–
NC(=O)c1ccccc1/N=C/c1ccc([N+](=O)[O-])o1 [CBK261675],105%,–
Cc1cccc(C(=O)NNC(=O)c2cccc(Cl)c2)c1 [CBK261676],107%,–
NC(=O)c1cccc(NC(=O)/C=C/C(=O)O)c1 [CBK261678],96.8%,–
C(=N\c1ccc(-c2nc3ccc(/N=C/c4ccncc4)cc3[nH]2)cc1)/c1ccncc1 [CBK261681],89.8%,–
O=C1N/C(=N/N=C/c2ccc(O)cc2)SC1Cc1ccccc1[N+](=O)[O-] (stereo not drawn) [CBK261684],91.9%,–
O=C(O)C1CCCCN1Cc1ccccc1 (stereo not drawn) [CBK261687],94.9%,–
O=C(N/N=C/c1cc(Br)c(Br)o1)c1cccc(F)c1 [CBK261688],94.2%,–
Cc1c(C(c2ccc(C(=O)O)cc2)c2c(C)n(C)n(-c3ccccc3)c2=O)c(=O)n(-c2ccccc2)n1C [CBK261691],102%,–
Cc1c(C(c2ccc3ccccc3c2)c2c(C)n(C)n(-c3ccccc3)c2=O)c(=O)n(-c2ccccc2)n1C [CBK261692],95.9%,–
O=C(COc1ccc(Cl)cc1)NNC(=O)Cc1cccc2ccccc12 [CBK261693],91.4%,–
COc1ccc(C(=O)NNC(=O)/C=C/c2ccc(C(C)C)cc2)cc1 [CBK261697],101%,–
COc1ccccc1CNS(=O)(=O)c1ccccc1[N+](=O)[O-] [CBK261699],102%,–
CC(C)(C)c1ccc(C(=O)NNC(=O)C(=O)Nc2ccccc2)cc1 [CBK261701],83.1%,–
O=C(O)c1c(Br)c(Br)c(Br)c(Br)c1C(=O)NCCc1ccccc1 [CBK261702],90.7%,–
COc1ccc(C(=O)NNC(=O)c2cccc(Cl)c2)cc1OC [CBK261704],91.4%,–
O=C(O)C1CCCCC1C(=O)NCCc1ccccc1 (stereo not drawn) [CBK261707],94%,–
O=C(O)CCCC(=O)NCc1cccnc1 [CBK261708],106%,–
O=C(NNc1ccc([N+](=O)[O-])cc1)c1cccs1 [CBK261709],92.1%,–
Brc1ccc(-c2nc(NCCCN3CCOCC3)cc(-c3ccccc3)n2)cc1 [CBK261712],90.1%,–

Structure (SMILES),"viability at 28.5 h, 10 µM","viability at 28.5 h, 10 µM (bulk resorufin, single well)"
Oc1cc(-c2ccccc2)nc(NNc2ccccc2)n1 [CBK261716],96.6%,–
O=C1CC(c2ccccc2)=NN1c1nc(-c2ccccc2)cc(-c2ccc(F)cc2)n1 [CBK261717],92.4%,–
Cc1ccc(O)c(NC(=O)Cn2nc([N+](=O)[O-])c(Br)c2C)c1 [CBK261718],92.2%,–
Cc1c(Cl)c([N+](=O)[O-])nn1CC(=O)N1CCN(C)CC1 [CBK261719],89.4%,–
CC1CCCCN1S(=O)(=O)c1cccc2nonc12 (stereo not drawn) [CBK261723],94.5%,–
CCOc1ccc(C(=O)NCCC(=O)O)cc1 [CBK261725D],92.2%,–
O=S(=O)(c1ccc(Oc2ccc(S(=O)(=O)N3CCCCCC3)cc2)cc1)N1CCCCCC1 [CBK261729],99%,–
COc1cc(CN2CCCCC2CO)c([N+](=O)[O-])cc1OC (stereo not drawn) [CBK261730],85.1%,–
COc1cc(CN(C)CCc2ccccn2)c([N+](=O)[O-])cc1OC [CBK261737G],88.3%,–
Cc1cc(I)ccc1NCC(=O)NN [CBK261738],91.1%,–
O=C(NCCCn1ccnc1)c1cccs1 [CBK261740],90.2%,–
COc1ccccc1CN(C)CCc1ccccn1 [CBK261741G],87.2%,–
COc1ccc(C(=O)O)cc1S(=O)(=O)N1CCCCCC1 [CBK261742],99.2%,–
CN(C1CCCCC1)S(=O)(=O)c1cc(Cl)ccc1Cl [CBK261744],118%,–
COc1ccc(NC(=O)CSc2nc(O)cc(=O)[nH]2)cc1 [CBK261747],88.8%,–
CC(=O)c1ccc(N2CCN(Cc3cc(C(C)(C)C)c(O)c(C(C)(C)C)c3)CC2)cc1 [CBK261749],87.2%,–
[O-][S+](CC(O)COc1ccc(Cl)cc1)c1ccccn1 (stereo not drawn) [CBK261750],99.9%,–
O=[N+]([O-])c1ccccc1S(=O)(=O)NCc1ccccn1 [CBK261751],92.6%,–
O=[N+]([O-])c1ccc(/C=N/C23CN4CN(CN(C4)C2)C3)s1 [CBK261752],105%,–
O=C(c1ccc(-c2ccccc2)cc1)c1no[n+]([O-])c1C(=O)c1ccc(-c2ccccc2)cc1 [CBK261754],106%,–
CC(=O)Nc1c(Nc2ccccc2)c2ccccc2oc1=O [CBK261756],88.1%,–
